Assay results as given in US20070232601A1, “Vla-4 Inhibitor” (priority 2004, published 2007).

How the values were obtained:
[1] = Intracorporeal kinetics and oral absorbing property test (dog, oral cassette); type: in vivo; conditions: orally administered, 0.5 mg/kg cassette; for AUC (total area under the plasma concentration versus time curve): LC/MS/MS
Description: Intracorporeal Kinetics and Oral Absorbing Property Test: A pharmacokinetic parameter when a test substance was orally administered to a dog by 0.5 mg/kg cassette was as follows.

[2] = biological target: T1, hα4 and β1 integrins (VLA-4) (Homo sapiens, UniProt P05556+P13612); experiment: In vitro evaluation: inhibition of binding of CHO cells expressing hα4 and β1 integrins to Eu3+-hVCAM-1 D1D7-IgG; conditions: ligand Eu3+-hVCAM-1 D1D7-IgG 2 nM, Ki calculated from IC50
T1 construct: expressed in transfected cells; host or cells: CHO cells
Summary of the method: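 CHO cells stably expressing hα4β1 were cultured 2 days, then incubated 1 h at room temperature with Eu3+-hVCAM-1 D1D7-IgG (added as 2 nM solution) and compound in HEPES pH 7.5 with Ca2+, Mg2+ and 4 mM Mn2+, ± 6% human serum albumin. Bound europium was read by time-resolved fluorescence; IC50 was converted to Ki using Scatchard-derived Kd.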

[3] = Dispersibility test in Japanese Pharmacopoeia First and Second Solution; type: physicochemical; conditions: for Dispersibility in Japanese Pharmacopoeia First Solution: JP1, pH 1.2; for Dispersibility in Japanese Pharmacopoeia Second Solution: JP2, pH 6.8
Description: Dispersibility of a test substance in Japanese Pharmacopoeia First Solution (JP1, pH 1.2) and Japanese Pharmacopoeia Second Solution (JP2, pH 6.8) was evaluated.

T1 sequence (P13612 34-1032): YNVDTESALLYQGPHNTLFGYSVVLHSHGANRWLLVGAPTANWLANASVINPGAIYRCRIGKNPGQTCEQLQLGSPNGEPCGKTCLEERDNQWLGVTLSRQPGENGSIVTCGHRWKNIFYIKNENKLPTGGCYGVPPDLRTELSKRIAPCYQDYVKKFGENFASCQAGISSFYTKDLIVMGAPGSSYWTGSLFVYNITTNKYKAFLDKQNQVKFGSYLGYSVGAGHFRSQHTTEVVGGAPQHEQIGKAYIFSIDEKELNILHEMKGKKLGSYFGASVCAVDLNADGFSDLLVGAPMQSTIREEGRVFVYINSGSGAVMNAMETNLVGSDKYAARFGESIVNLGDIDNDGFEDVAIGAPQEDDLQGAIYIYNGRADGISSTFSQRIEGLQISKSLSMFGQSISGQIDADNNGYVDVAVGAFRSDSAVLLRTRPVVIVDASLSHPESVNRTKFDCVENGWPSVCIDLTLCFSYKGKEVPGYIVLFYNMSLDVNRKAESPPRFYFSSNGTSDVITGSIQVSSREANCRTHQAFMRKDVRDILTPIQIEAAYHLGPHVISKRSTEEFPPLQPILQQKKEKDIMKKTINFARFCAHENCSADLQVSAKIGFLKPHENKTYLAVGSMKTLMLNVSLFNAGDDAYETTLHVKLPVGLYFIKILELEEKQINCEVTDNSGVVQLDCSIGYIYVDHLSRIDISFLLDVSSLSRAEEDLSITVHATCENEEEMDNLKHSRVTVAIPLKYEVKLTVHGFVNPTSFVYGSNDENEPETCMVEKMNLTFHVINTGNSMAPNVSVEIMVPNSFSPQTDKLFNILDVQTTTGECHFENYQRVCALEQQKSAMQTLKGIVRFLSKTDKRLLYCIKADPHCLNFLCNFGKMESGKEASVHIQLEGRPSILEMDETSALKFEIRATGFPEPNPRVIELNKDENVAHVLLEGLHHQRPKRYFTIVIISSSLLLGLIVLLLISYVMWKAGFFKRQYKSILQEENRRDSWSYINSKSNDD
T1 sequence (P05556 21-798): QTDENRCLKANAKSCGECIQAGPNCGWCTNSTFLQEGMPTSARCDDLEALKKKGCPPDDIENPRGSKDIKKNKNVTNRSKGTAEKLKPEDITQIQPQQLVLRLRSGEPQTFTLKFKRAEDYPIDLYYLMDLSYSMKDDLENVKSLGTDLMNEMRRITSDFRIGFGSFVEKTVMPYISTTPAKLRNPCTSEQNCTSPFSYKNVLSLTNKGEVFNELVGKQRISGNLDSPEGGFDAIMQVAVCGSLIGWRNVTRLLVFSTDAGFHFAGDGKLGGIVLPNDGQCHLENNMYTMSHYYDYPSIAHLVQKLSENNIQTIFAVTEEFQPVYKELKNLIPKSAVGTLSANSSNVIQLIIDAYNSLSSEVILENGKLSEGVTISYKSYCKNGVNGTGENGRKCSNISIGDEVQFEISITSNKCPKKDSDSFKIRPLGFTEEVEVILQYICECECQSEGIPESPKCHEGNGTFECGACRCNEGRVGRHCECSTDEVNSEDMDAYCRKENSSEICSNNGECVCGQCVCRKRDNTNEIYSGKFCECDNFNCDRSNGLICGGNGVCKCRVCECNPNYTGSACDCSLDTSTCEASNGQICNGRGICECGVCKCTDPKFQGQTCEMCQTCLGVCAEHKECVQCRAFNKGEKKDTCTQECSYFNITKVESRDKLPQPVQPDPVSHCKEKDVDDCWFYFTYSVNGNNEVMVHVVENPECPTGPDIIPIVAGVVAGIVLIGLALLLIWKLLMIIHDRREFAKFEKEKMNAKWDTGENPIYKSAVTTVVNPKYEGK

Cltot (apparent plasma clearance) [1]	AUC (total area under the plasma concentration versus time curve) [1]	SMILES	Ki [2]	Dispersibility in Japanese Pharmacopoeia First Solution [3]	Dispersibility in Japanese Pharmacopoeia Second Solution [3]
0.81 mL/min/kg	10690 ng·h/mL	CO[C@H]1C[C@@H](c2ncc(CCC(=O)O)s2)N(C(=O)Cc2cc(Cl)c(NC(=O)c3cn(C)c4ccccc34)cc2F)C1 [Example 2, 3-[2-[1-[5-Chloro-2-fluoro-4-(1-methyl-3-indolylcarbonyl)aminophenylacetyl]-(4S)-methoxy-(2S)-pyrrolidinyl]-5-thiazolyl]propionic acid]	0.85 nM	97 µg/mL	>2000 µg/mL
0.82 mL/min/kg	10240 ng·h/mL	CO[C@H]1C[C@@H](c2ncc(CCC(=O)O)s2)N(C(=O)Cc2cc(Cl)c(NC(=O)c3csc4ccccc34)cc2F)C1 [Example 4, 3-[2-[1-[4-[(3-Benzo[b]thienylcarbonyl)amino]-5-chloro-2-fluorophenylacetyl]-(4S)-methoxy-(2S)-pyrrolidinyl]-5-thiazolyl]propionic acid]	0.72 nM	–	–
0.57 mL/min/kg	14935 ng·h/mL	CC(C)O[C@H]1C[C@@H](c2ncc(CCC(=O)O)s2)N(C(=O)Cc2cc(Cl)c(NC(=O)c3csc4ccccc34)cc2F)C1 [Example 36, 3-[2-[1-[4-[(3-Benzo[b]thienylycarbonyl)amino]-5-chloro-2-fluorophenylacetyl]-4S-isopropoxy-(2S)-pyrrolidinyl]-5-thiazolyl]propionic acid]	1.7 nM	–	–
0.31 mL/min/kg	27620 ng·h/mL	COC[C@@H]1CC[C@@H](c2ncc(CCC(=O)O)s2)N1C(=O)Cc1ccc2nc(Nc3cc(F)ccc3C)oc2c1F [Example 57, 3-[2-[1-[7-Fluoro-2-(5-fluoro-2-methylphenyl)-amino-6-benzoxazolylacetyl]-(5S)-methoxymethyl-(2S)-pyrrolidinyl]-5-thiazolyl]propionic acid]	4.4 nM	–	–
0.59 mL/min/kg	14860 ng·h/mL	COC[C@@H]1CC[C@@H](c2ncc(CCC(=O)O)s2)N1C(=O)Cc1ccc2nc(Nc3cc(F)ccc3C)oc2c1 [Example 58]	6.7 nM	–	–
0.42 mL/min/kg	19770 ng·h/mL	Cn1cc(C(=O)Nc2cc(Cl)c(CC(=O)N3[C@H](c4ncc(CCC(=O)O)s4)C[C@@H]4CCCC[C@@H]43)cc2Cl)c2ccccc21 [Example 60, 3-[2-[1-[2,5-Dichloro-4-(1-methyl-3-indolylcarbonyl)aminophenylacetyl]-(2S)-octahydroindolyl]-5-thiazolyl]propionic acid]	8.6 nM	–	–
–	–	C[C@@H]1CN([C@H]2C[C@@H](c3ncc(CCC(=O)O)s3)N(C(=O)Cc3cc(Cl)c(NC(=O)c4csc5ccccc45)cc3F)C2)C[C@H](C)O1 [Example 87, 3-[2-[1-[4-(3-Benzo[b]thiophenylcarbonylamino)-5-chloro-2-fluorophenylacetyl]-(4S)-[4-(cis-2,6-dimethyl)morpholinyl]-(2S)-pyrrolidinyl]-5-thiazolyl]propionic acid]	1 nM	1200 µg/mL	1300 µg/mL
–	–	C[C@@H]1CN([C@H]2C[C@@H](c3ncc(CCC(=O)O)s3)N(C(=O)Cc3cc(Cl)c(NC(=O)c4csc5ccccc45)cc3Cl)C2)C[C@H](C)O1 [Example 88, 3-[2-[1-[4-(3-Benzo[b]thiophenylcarbonylamino)-2,5-dichlorophenylacetyl]-(4S)-[4-(cis-2,6-dimethyl)morpholinyl]-(2S)-pyrrolidinyl]-5-thiazolyl]propionic acid]	1.2 nM	1200 µg/mL	1400 µg/mL
–	–	C[C@@H]1CN([C@H]2C[C@@H](c3ncc(CCC(=O)O)s3)N(C(=O)Cc3cc(Cl)c(NC(=O)c4coc5ccccc45)cc3F)C2)C[C@H](C)O1 [Example 89]	1.3 nM	1100 µg/mL	1300 µg/mL
–	–	C[C@@H]1CN([C@H]2C[C@@H](c3ncc(CCC(=O)O)s3)N(C(=O)Cc3cc(Cl)c(NC(=O)c4coc5ccccc45)cc3Cl)C2)C[C@H](C)O1 [Example 90]	1.3 nM	1100 µg/mL	1300 µg/mL
–	–	CO[C@H]1C[C@@H](c2ncc(CCC(=O)O)s2)N(C(=O)Cc2ccc(Nc3nc4ccccc4o3)c(Cl)c2)C1 [Example 107, 3-[2-[1-[4-(2-Benzoxazolyl)amino-3-chlorophenyl]acetyl-(4S)-methoxy-(2S)-pyrrolidinyl]-5-thiazolyl]propionic acid]	9.2 nM	700 µg/mL	700 µg/mL
–	–	CO[C@H]1C[C@@H](c2ncc(CCC(=O)O)s2)N(C(=O)Cc2cc(Cl)c(Nc3nc4ccccc4o3)cc2F)C1 [Example 108]	19 nM	730 µg/mL	730 µg/mL
–	–	CO[C@H]1C[C@@H](c2ncc(CCC(=O)O)s2)N(C(=O)Cc2cc(Cl)c(Nc3nc4ccccc4o3)cc2Cl)C1 [Example 109, 3-[2-[1-[4-(2-Benzoxazolyl)amino-2,5-dichlorophenyl)acetyl-(4S)-methoxy-(2S)-pyrrolidinyl]-5-thiazolyl]propionic acid]	6.3 nM	480 µg/mL	750 µg/mL
–	–	CO[C@H]1C[C@@H](c2ncc(CCC(=O)O)s2)N(C(=O)Cc2ccc(Nc3nc4ccccc4s3)c(Cl)c2)C1 [Example 110, 3-[2-[1-[4-(2-Benzothiazolyl)amino-3-chlorophenyl]acetyl-(4S)-methoxy-(2S)-pyrrolidinyl]-5-thiazolyl]propionic acid]	2.5 nM	730 µg/mL	730 µg/mL
–	–	CO[C@H]1C[C@@H](c2ncc(CCC(=O)O)s2)N(C(=O)Cc2cc(Cl)c(Nc3nc4ccccc4s3)cc2F)C1 [Example 111, 3-[2-[1-[4-(2-Benzothiazolyl)amino-5-chloro-2-fluorophenyl]acetyl-(4S)-methoxy-(2S)-pyrrolidinyl]-5-thiazolyl]propionic acid]	3.3 nM	570 µg/mL	750 µg/mL
–	–	CO[C@H]1C[C@@H](c2ncc(CCC(=O)O)s2)N(C(=O)Cc2cc(Cl)c(Nc3nc4ccccc4s3)cc2Cl)C1 [Example 112, 3-[2-[1-[4-(2-Benzothiazolyl)amino-2,5-dichlorophenyl]acetyl-(4S)-methoxy-(2S)-pyrrolidinyl]-5-thiazolyl]propionic acid]	1.9 nM	420 µg/mL	770 µg/mL
–	–	CO[C@H]1C[C@@H](c2ncc(CCC(=O)O)s2)N(C(=O)Cc2cc(Cl)c(Nc3nc4cc(F)ccc4s3)cc2F)C1 [Example 113, 3-[2-[1-[4-(5-Fluoro-2-benzothiazolyl)amino-5-chloro-2-fluorophenyl]acetyl-(4S)-methoxy-(2S)-pyrrolidinyl]-5-thiazolyl]propionic acid]	5 nM	180 µg/mL	770 µg/mL
–	–	O=C(O)CCc1cnc([C@@H]2[C@@H](O)CCN2C(=O)Cc2ccc(Nc3nc4ccccc4s3)c(Cl)c2)s1 [Example 119, 3-[2-[1-[4-(2-Benzothiazolyl)amino-3-chlorophenyl]acetyl-(3S)-hydroxy-(2S)-pyrrolidinyl]-5-thiazolyl]propionic acid]	6.2 nM	730 µg/mL	730 µg/mL
–	–	O=C(O)CCc1cnc([C@@H]2[C@@H](O)CCN2C(=O)Cc2cc(Cl)c(Nc3nc4ccccc4s3)cc2F)s1 [Example 120, 3-[2-[1-[4-(2-Benzothiazolyl)amino-5-chloro-2-fluorophenyl]acetyl-(3S)-hydroxy-(2S)-pyrrolidinyl]-5-thiazolyl]propionic acid]	9.8 nM	320 µg/mL	760 µg/mL
–	–	O=C(O)CCc1cnc([C@@H]2[C@@H](O)CCN2C(=O)Cc2cc(Cl)c(Nc3nc4ccccc4s3)cc2Cl)s1 [Example 121, 3-[2-[1-[4-(2-Benzothiazolyl)amino-2,5-dichlorophenyl]acetyl-(3S)-hydroxy-(2S)-pyrrolidinyl]-5-thiazolyl]propionic acid]	8.5 nM	160 µg/mL	780 µg/mL

SMILES	Cltot (apparent plasma clearance) [1]	AUC (total area under the plasma concentration versus time curve) [1]	Ki [2]	Dispersibility in Japanese Pharmacopoeia First Solution [3]	Dispersibility in Japanese Pharmacopoeia Second Solution [3]
CCOC[C@@H]1CC[C@@H](c2ncc(CCC(=O)O)s2)N1C(=O)Cc1ccc2nc(Nc3cc(F)ccc3C)oc2c1F [Example 51, 3-[2-[(5S)-ethoxymethyl-1-[7-fluoro-2-(5-fluoro-2-methylphenyl)amino-6-benzoxazolylacetyl]-(2S)-pyrrolidinyl]-5-thiazolyl]propionic acid]	0.26 mL/min/kg	32310 ng·h/mL	4.6 nM	88 µg/mL	>800 µg/mL
